According to ChEMBL document CHEMBL5356988, “Diversely functionalized isoquinolines and their core-embedded heterocyclic frameworks: a privileged scaffold for medicinal chemistry” (RSC Med Chem, 2023):
pIC50: −log10 of the molar value.

Legend:
HGC-27 = test: Antiproliferative activity against human HGC-27 cells assessed as reduction in cell viability by CCK-8 assay; format: functional, cell-based
Interleukin-5 = molecular target: T1, Interleukin-5 (Homo sapiens, UniProt P05113); test: Inhibition of IL-5 (unknown origin)
T1 sequence (P05113 whole entry): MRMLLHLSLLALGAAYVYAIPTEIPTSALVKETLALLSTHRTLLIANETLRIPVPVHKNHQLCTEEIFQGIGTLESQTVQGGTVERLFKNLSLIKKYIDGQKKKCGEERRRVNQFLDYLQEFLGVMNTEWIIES

SMILES	pIC50 (HGC-27)	pIC50 (Interleukin-5)
Fc1ccc(/C=C/c2nccc3ccccc23)c(F)c1	7.40	
Fc1ccc(/C=C/c2nccc3ccccc23)cc1F	7.10	
C=C1Oc2c(ccc3cc(C)ncc23)C1=O		5.70
